Some results are limits rather than exact numbers.

For assay [1], the system named is human cervical tumor cell line HeLa (ATCC CCL-2). Description: SAC-Formation - Nocodazole-Induced Assay. It counts as cell-based. Particulars: Homo sapiens, HeLa, 24 h, HeLa cells, nocodazole 0.1 μg/ml together with test compound, decrease of mitotic cells (phospho-histone H3 Ser10). In a few lines:
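Loss of phospho-histone H3 Ser10-positive cells, counted against Hoechst-stained nuclei by high-content imaging, marked mitotic breakthrough. Compounds (0.005–20 μM, 0.5% DMSO) were co-dosed with 0.1 μg/ml nocodazole onto HeLa cells for 24 h at 37 °C. Curves were fitted with a four-parameter Hill equation.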

Another assay concerns the target T1, CDK2/CycE (Homo sapiens, UniProt P24941).
T1 construct: GST; purchased ProQinase GmbH (Freiburg, Germany); host or cells: insect cells (Sf9)
Description: CDK2/CycE kinase assay (TR-FRET). Particulars: avg, read-out: CDK2 avg (IC50 [mol/l]). Format: biochemical. In a few lines:
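Read-out is a TR-FRET 665/620 nm emission ratio from EDTA-stopped reactions detected with anti-pRB(pSer807/pSer811), Eu-labelled anti-mouse IgG and streptavidin-XL665, scaled between no-enzyme and uninhibited wells. Reaction: Sf9-expressed GST-CDK2/GST-CycE, 15 min compound preincubation, 10 μM ATP, 0.75 μM biotin-peptide, 25 min, 22° C., pH 8.0 Tris buffer.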
A general note: In TR-FRET formats the signal depends on donor and acceptor labels being close together.

Regarding `Cc1nsc(Nc2cnc3ccccc3n2)c1C(=O)Nc1cccc(NS(=O)(=O)C2CCCN(C(=O)OCc3ccccc3)C2)c1` (stereo not drawn) [Example 291, benzyl 3-{[3-({[3-methyl-5-(quinoxalin-2-ylamino)-1,2-thiazol-4-yl]carbonyl}amino)phenyl]sulfamoyl} piperidine-1-carboxylate], the IC50 was 1.4 µM in assay [1] and 14 µM on CDK2/CycE. On to `Cc1nsc(Nc2cnc3ccccc3n2)c1C(=O)Nc1cccc(NS(=O)(=O)C2CCN(C(=O)OC(C)(C)C)C2)c1` (stereo not drawn) [Example 290, tert-butyl 3-{[3-({[3-methyl-5-(quinoxalin-2-ylamino)-1,2-thiazol-4-yl]carbonyl}amino)phenyl]sulfamoyl} pyrrolidine-1-carboxylate], for which the IC50 came to 2 µM in assay [1] and 19 µM on CDK2/CycE. Taken in the same sequence, the figures for `Cc1nsc(Nc2cnc3ccccc3n2)c1C(=O)Nc1cccc(C(=O)NC(C)C)c1` [Example 253, N-[3-(isopropylcarbamoyl)phenyl]-3-methyl-5-(quinoxalin-2-ylamino)-1,2-thiazole-4-carboxamide] were 0.83 µM and over 20 µM.

For `Cc1nsc(Nc2cncc(C(F)(F)F)n2)c1C(=O)Nc1ccc(F)c(OC2CCN(CC(F)F)CC2)c1` [Example 268, N-(3-{[1-(2,2-difluoroethyl)piperidin-4-yl]oxy}-4-fluorophenyl)-3-methyl-5-{[6-(trifluoromethyl)pyrazin-2-yl]amino}-1,2-thiazole-4-carboxamide], the IC50 in assay [1] is 0.038 µM; at CDK2/CycE it was over 20 µM. Taken in the same sequence, the figures for `Cc1nsc(Nc2cncc(C(F)(F)F)n2)c1C(=O)Nc1ccc(C(=O)N2CCN(CC(F)F)CC2)cc1` [Example 273, N-(4-{[4-(2,2-difluoroethyl)piperazin-1-yl]carbonyl}phenyl)-3-methyl-5-{[6-(trifluoromethyl)pyrazin-2-yl]amino}-1,2-thiazole-4-carboxamide] were 1.1 µM and over 20 µM. On to `Cc1nsc(Nc2cnc3ccccc3n2)c1C(=O)Nc1cccc(NS(=O)(=O)C2CCN(CC(F)(F)F)C2)c1` (stereo not drawn) [Example 289, 3-methyl-5-(quinoxalin-2-ylamino)-N-[3-({[1-(2,2,2-trifluoroethyl)pyrrolidin-3-yl]sulfonyl}amino)phenyl]-1,2-thiazole-4-carboxamide], for which, in assay [1], the IC50 came to 1.9 µM.

For `Cc1nsc(Nc2cncc(C(F)(F)F)n2)c1C(=O)Nc1ccc(C(=O)N2CCN(CCF)CC2)cc1` [Example 274, N-(4-{[4-(2-fluoroethyl)piperazin-1-yl]carbonyl}phenyl)-3-methyl-5-{[6-(trifluoromethyl)pyrazin-2-yl]amino}-1,2-thiazole-4-carboxamide], the IC50 in assay [1] turned out to be 0.14 µM; at CDK2/CycE, 5.4 µM. Take `Cc1nsc(Nc2cnc3ccccc3n2)c1C(=O)Nc1cccc(C(=O)NC2CC2)c1` [Example 249, N-[3-(cyclopropylcarbamoyl)phenyl]-3-methyl-5-(quinoxalin-2-ylamino)-1,2-thiazole-4-carboxamide]: the IC50 in assay [1] was 0.96 µM; on CDK2/CycE, over 20 µM. `Cc1nsc(Nc2cncc(C(F)(F)F)n2)c1C(=O)Nc1ccc(F)c(OC2CCN(CCF)CC2)c1` [Example 269, N-(4-fluoro-3-{[1-(2-fluoroethyl)piperidin-4-yl]oxy}phenyl)-3-methyl-5-{[6-(trifluoromethyl)pyrazin-2-yl]amino}-1,2-thiazole-4-carboxamide]: the IC50 in assay [1] is 0.12 µM; at CDK2/CycE it was over 20 µM. Regarding `Cc1nsc(Nc2cnc(C(F)(F)F)cn2)c1C(=O)Nc1ccc(F)c(OCC2CCN(C(CF)CF)CC2)c1` [Example 312, N-(3-{[1-(1,3-difluoropropan-2-yl)piperidin-4-yl]methoxy}-4-fluorophenyl)-3-methyl-5-{[5-(trifluoromethyl)pyrazin-2-yl]amino}-1,2-thiazole-4-carboxamide], the IC50 in assay [1] is 0.082 µM; on CDK2/CycE, at least 20 µM.

In the case of `Cc1nsc(Nc2cc(C#N)ccn2)c1C(=O)Nc1ccc(OC2CCNCC2)nc1` [Example 24, 5-[(4-Cyanopyridin-2-yl)amino]-3-methyl-N-[6-(piperidin-4-yloxy)pyridin-3-yl]-1,2-thiazole-4-carboxamide], the IC50 in assay [1] is 20 µM; on CDK2/CycE, at least 20 µM. `Cc1nsc(Nc2cnc(C(F)(F)F)cn2)c1C(=O)Nc1cccc(NC(=O)OC(C)(C)C)c1` [Example 284, 3-tert-butyl (3-{[(3-methyl-5-{[5-(trifluoromethyl)pyrazin-2-yl]amino}-1,2-thiazol-4-yl)carbonyl]amino}phenyl)carbamate]: the IC50 in assay [1] is 0.076 µM; at CDK2/CycE, over 20 µM. In the case of `Cc1nsc(Nc2cnc(C(F)(F)F)cn2)c1C(=O)Nc1ccc(F)c(OCC2CCN(CCC(F)(F)F)CC2)c1` [Example 311, N-(4-fluoro-3-{[1-(3,3,3-trifluoropropyl)piperidin-4-yl]methoxy}phenyl)-3-methyl-5-{[5-(trifluoromethyl)pyrazin-2-yl]amino}-1,2-thiazole-4-carboxamide], the IC50 was 0.13 µM in assay [1] and over 20 µM on CDK2/CycE. `Cc1nsc(Nc2cnc(C(F)(F)F)cn2)c1C(=O)Nc1ccc(F)c(OCCCN(C)CC(F)F)c1` [Example 301, N-(3-{3-[(2,2-difluoroethyl)(methyl)amino]propoxy}-4-fluorophenyl)-3-methyl-5-{[5-(trifluoromethyl)pyrazin-2-yl]amino}-1,2-thiazole-4-carboxamide]: the IC50 in assay [1] is 0.11 µM; on CDK2/CycE it was over 20 µM. With `Cc1nsc(Nc2cnc3ccccc3n2)c1C(=O)Nc1cccc(NS(=O)(=O)C2CN(CCC(F)(F)F)C2)c1` [Example 288, 3-methyl-5-(quinoxalin-2-ylamino)-N-[3-({[1-(3,3,3-trifluoropropyl)azetidin-3-yl]sulfonyl}amino)phenyl]-1,2-thiazole-4-carboxamide], the IC50 is 7.7 µM in assay [1] and over 20 µM at CDK2/CycE. Turning to `Cc1nsc(Nc2cnc(C(F)(F)F)cn2)c1C(=O)Nc1ccc(F)c(OC2CCN(CC(F)(F)F)C2)c1` (stereo not drawn) [Example 315, N-(4-fluoro-3-{[1-(2,2,2-trifluoroethyl)pyrrolidin-3-yl]oxy}phenyl)-3-methyl-5-{[5-(trifluoromethyl)pyrazin-2-yl]amino}-1,2-thiazole-4-carboxamide], the IC50 in assay [1] was 0.0043 µM; on CDK2/CycE, at least 20 µM. Consider `Cc1nsc(Nc2cncc(C(F)(F)F)n2)c1C(=O)Nc1ccc(OCCCO)nc1` [Example 278, N-[6-(3-hydroxypropoxy)pyridin-3-yl]-3-methyl-5-{[6-(trifluoromethyl)pyrazin-2-yl]amino}-1,2-thiazole-4-carboxamide], for which the IC50 in assay [1] is 0.19 µM; at CDK2/CycE, over 20 µM. As for `Cc1nsc(Nc2cnc(C(F)(F)F)cn2)c1C(=O)Nc1ccc(C(=O)NC2CCN(CC(F)F)CC2)cc1` [Example 259, N-(4-{[1-(2,2-difluoroethyl)piperidin-4-yl]carbamoyl}phenyl)-3-methyl-5-{[5-(trifluoromethyl)pyrazin-2-yl]amino}-1,2-thiazole-4-carboxamide], the IC50 in assay [1] was 0.4 µM; at CDK2/CycE it was over 20 µM. In the case of `Cc1nsc(Nc2cnc(C(F)(F)F)cn2)c1C(=O)Nc1ccc(OCCCNCC(F)(F)F)nc1` [Example 292, 3-methyl-N-(6-{3-[(2,2,2-trifluoroethyl)amino]propoxy}pyridin-3-yl)-5-{[5-(trifluoromethyl)pyrazin-2-yl]amino}-1,2-thiazole-4-carboxamide], the IC50 was 0.98 µM in assay [1] and over 20 µM on CDK2/CycE. For `CCN1CCN(C(=O)c2ccc(NC(=O)c3c(C)nsc3Nc3cnc(C(F)(F)F)cn3)cc2)CC1` [Example 261, N-{4-[(4-ethylpiperazin-1-yl)carbonyl]phenyl}-3-methyl-5-{[5-(trifluoromethyl)pyrazin-2-yl]amino}-1,2-thiazole-4-carboxamide], the values for the IC50 (in assay [1]; on CDK2/CycE) were 1.1 µM and over 20 µM, respectively.

For `Cc1nsc(Nc2cnc(C(F)(F)F)cn2)c1C(=O)Nc1ccc(OCCCNCCC(F)(F)F)nc1` [Example 294, 3-methyl-5-{[5-(trifluoromethyl)pyrazin-2-yl]amino}-N-(6-{3-[(3,3,3-trifluoropropyl)amino]propoxy}pyridin-3-yl)-1,2-thiazole-4-carboxamide], the results for the IC50 (in assay [1]; at CDK2/CycE) were 0.45 µM and over 20 µM, respectively. Take `Cc1nsc(Nc2cnc(C(F)(F)F)cn2)c1C(=O)Nc1ccc(OCCNCC(F)F)nc1` [Example 305, N-(6-{2-[(2,2-difluoroethyl)amino]ethoxy}pyridin-3-yl)-3-methyl-5-{[5-(trifluoromethyl)pyrazin-2-yl]amino}-1,2-thiazole-4-carboxamide]: the IC50 was 0.51 µM in assay [1] and at least 20 µM on CDK2/CycE. With `Cc1nsc(Nc2cnc3ccccc3n2)c1C(=O)Nc1cccc(NS(=O)(=O)C2CCN(CCC(F)(F)F)CC2)c1` [Example 283, 3-methyl-5-(quinoxalin-2-ylamino)-N-[3-({[1-(3,3,3-trifluoropropyl)piperidin-4-yl]sulfonyl}amino)phenyl]-1,2-thiazole-4-carboxamide], the IC50 in assay [1] is 3.3 µM. As for `Cc1nsc(Nc2cnc3ccccc3n2)c1C(=O)Nc1cccc(NS(=O)(=O)C2CN(CC(F)F)C2)c1` [Example 286, N-[3-({[1-(2,2-difluoroethyl)azetidin-3-yl]sulfonyl}amino)phenyl]-3-methyl-5-(quinoxalin-2-ylamino)-1,2-thiazole-4-carboxamide], in assay [1], the IC50 turned out to be 4.1 µM.
